Several values for one entry are separate records, joined by “and”; a condition that tells them apart may be missing. Equal values may be shown once. Read-outs that look alike come from different tables or passages of the source. Numbered stars: 1 amine (or outer) side, 2 acyl side, 3 side chain; on linkers, the order of the positions; unused ones are H or OH. Bridge positions count the residues as written; N and C are the ends. Peptide text beside a SMILES is read from it. * marks the point of attachment. X1 = O=C(O)CN1CCN(CC(=O)O)CCN(CC(=O)N2CCN(Cc3cc(C[*:1])cc(C[*:2])c3)CC2)CCN(CC(=O)O)CC1; Hexanoyl = CCCCCC(=O)*
Experiments:
MCA205-mFAP tumors = experiment: Tumor mass in pharmacodynamic study; type: in vivo, C57BL/6 mice; conditions: day 13 pi; n = 8 per group; vehicle 1433 mg
From the text: (§1) Female C57BL/6 mice were subcutaneously implanted with 1 × 10^6 MCA205-mFAP cells (n = 12 per group). […] Treatment began when the MTV was 94 mm^3 (mean body weight 20.4 g). […] Treatment began when MTV was 162 mm^3 (mean body weight 20.8 g) and tumors were collected at days 8 and 13 pi for analysis.

[1] = tested on: MCA205-mFAP syngeneic tumor model; experiment: Tumor in vivo efficacy study
Method: Female C57BL/6 mice were subcutaneously implanted with 1 × 10^6 MCA205-mFAP cells (n = 12 per group). […] Treatment began when the MTV was 94 mm^3 (mean body weight 20.4 g).
Calculation of tumor growth inhibition (TGI). Percent TGI is defined as the difference between the mean tumor volume of the test group and the control group. TGI values are calculated as follows:
Tᵢ is the mean tumor volume of a treatment group on a given day i, T₀ is the mean tumor volume of the treatment group on the day treatment started (day 0), Vᵢ is the mean tumor volume of the vehicle control group on the same day as Tᵢ, and V₀ is the mean tumor volume of the vehicle group on the initial day of treatment (day 0).
Calculation of body weight loss. Relative body weight (RBW) was calculated as follows:
BWᵢ is the mean body weight of one group on a given day i, BW0 is the mean body weight of the same group on the day treatment started (day 0).
Statistical analysis. For the evaluation of the statistical significance of antitumor efficacy, body weight change, and immune profiling, two-way ANOVA with multiple comparisons was performed using GraphPad Prism (Version 8.4).
All P values <0.05 were considered statistically significant.

[2] = tested on: immune gene expression in MCA205-mFAP tumors; experiment: Tumor RNA expression analysis (nCounter PanCancer Immune Profiling panel); type: in vivo, C57BL/6 mice
From the text: Total RNA was isolated from tumors using the PureLink RNA Mini kit (Thermo Fisher Scientific) following the manufacturer’s protocol. The nCounter PanCancer Immune Profiling (mouse) panel (NanoString Technologies) was used to measure the expression in the RNA samples. Following hybridization, transcripts were quantitated and analyzed using the nCounter Digital Analyzer and nCounter Advanced Analysis Software v4.0 (NanoString Technologies). Data were normalized for assay efficiency by multiplying each count by a positive normalization factor obtained for each sample. For differential expression analysis, the Benjamini-Yekutieli statistical analysis, which calculates false discovery rate, was employed to generate an adjusted p-value.

[3] = tested on: T cell infiltrates of MCA205-mFAP tumors; experiment: IHC quantification of CD8+ and CD4+ T cells in tumors
Method: Tumors were formalin-fixed and paraffin-embedded and processed into 4 μm tissue sections. Tumor sections were stained for FAP (EPR20021, Abcam), CD8 (D4W2Z, Cell Signaling), and CD4 (EPR19514, Abcam) on a Bond Rx autostainer (Leica Biosystems) with Bond Polymer Refine Detection (Leica Biosystems) according to the manufacturer's protocol. After staining, sections were dehydrated and film cover slipped using a TissueTek-Prisma and Coverslipper (Sakura). Whole slide scanning (40x) was performed on an Aperio AT2 (Leica Biosystems). Image analysis and quantification was performed on Aperio ImageScope v12.1 (Leica Biosystems) or QuPath v0.1.2 [18].
A tissue slide containing both intrinsic positive staining structures was included in every staining run. For FAP H-score assessment, the staining intensity was scored as 0, 1, 2, or 3 corresponding to the presence of negative, weak, intermediate, and strong brown staining, respectively. The average percentage positive was calculated for each intensity category and the following calculation was applied: H-score = (% of cells stained at intensity category 1 x 1) + (% of cells stained at intensity category 2 x 2) + (% of cells stained at intensity category 3 x 3). Image analysis scoring was previously validated against scoring performed by a pathologist. For CD4 and CD8 percentage assessment, QuPath positive cell detection function was used.

[4] = tested on: immune infiltrates of MCA205-mFAP tumors; experiment: Ex vivo immune profiling of tumors by flow cytometry; conditions: for CD8^+ (%, CD45^+) / CD86^+ on TAM (MFI) / CD127^+CD8^+ (%, CD8^+) / CD127 on CD127^+CD8^+ (MFI) / T cells (%, CD45^+) / TAM (%, CD45^+) / CD45^+ (%, total): mean ± SEM; for CD8^+ (%, CD45^+) / CD86^+ on TAM (MFI) / CD127^+CD8^+ (%, CD8^+) / CD127 on CD127^+CD8^+ (MFI) / T cells (%, CD45^+) / TAM (%, CD45^+) / CD4+ (%, CD45+) / CD25+CD4+ (%, CD4+) / CD25+CD8+ (%, CD8+) / CD25 on CD4+ (MFI) / CD25 on CD25+CD8+ (MFI) / CD86+ TAMs (%, TAMs) / CD127+CD4+ (%, CD4+) / CD127 on CD4+ (MFI) / CD45^+ (%, total): n = 8 per group; for CD45^+ (%, total): tumor flow cytometry;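 on all read-outs here: subcutaneous MCA205-mFAP tumors in female C57BL/6 mice, treated from a mean tumor volume of 162 mm^3, excised on day 8 or 13 pi and profiled by flow cytometry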
Method: as §1
Tumors were dissected into small pieces, digested using a tumor dissociation enzyme mix (Miltenyi Biotec) at 37 °C for 40 min in a shaking water bath, processed through 70 μM cell strainers and counted (NucleoCounter NC-202, Chemotec). Cells (10 × 10^6) were Fc-blocked (2.4G2, BD Biosciences) and stained in FACS buffer (PBS with 0.5% BSA, 0.1% NaN3 and 2 mM EDTA) with Brilliant Stain Buffer Plus (BD Biosciences) for surface markers CD45 (30-F11), CD3 (145-2C11), CD4 (RM4-5), CD8 (53–6.7), CD25 (PC61), CD127 (SB/199), Ly6g (1A8), Ly6c (HK1.4), CD11b (M1/70), CD86 (GL1), CD314 (CX5), F4/80 (T45-2342), and eFlour 780 fixable viability dye (Thermo Fisher Scientific) for 30 min on ice. Anti-Ly6c was purchased from Biolegend, while remaining antibodies were from BD Biosciences. Samples were washed and acquired on the FACSymphony A3 and analyzed in FlowJo v10.8.1 (BD Biosciences, Supplementary Fig. S1).
PMN-MDSC CD45+ CD11b+ Ly6c+ Ly6g+
Mo-MDSC CD45+ CD11b+ Ly6c HighLy6g-
Gating strategy for immune profiling of MCA205-mFAP tumors by flow
cytometry. Representative bivariate density plots show gating strategy to identify the PMN-MDSC, Mo-
MDSC, TAM and T-cells in the MCA205-mFAP tumors (A). Marker sets used to identify each immune
cell type are listed (B).

[5] = In vivo biodistribution by SPECT/CT imaging; parameters: species or system C57BL/6 mice; conditions: female, C57BL/6, mouse, total radioactivity; for tissue uptake at 3 h / tissue uptake at 24 h / tissue uptake at 48 h / tissue uptake at 72 h: mean ± SD, n = 6, SD
Method: All animal experiments were carried out under licenses approved by the respective authorities and in compliance with guidelines on animal welfare. […] Animals were anesthetized (isoflurane 3% in 100% O2) and eye lubricants were applied before each scan. Study was performed at Minerva Imaging ApS (Denmark).
Imaging and image analysis were performed as described. During the scan, mice were kept under isoflurane anesthesia, and body temperature was maintained under warm air. The following acquisition parameters were used for the respective imaging modality.
For quantification, VivoQuant (InviCRO) was used to draw regions of interest (ROIs) in relevant tissues, with a ROI drawn over the left ventricle of the heart to serve as blood pool surrogate. Percentage injected dose per gram of tissue (%ID/g) was calculated from the tissue-associated radioactivity determined in the ROI, the volume of the ROI, and the decay-corrected dose entered during preprocessing of the images in VivoQuant.

[6] = day 8 pi, differential expression versus vehicle, 770-plex panel

Structure (SMILES): CCCCCC(=O)N[C@H]1CSCc2cc(cc(CN3CCN(C(=O)CN4CCN(CC(=O)O)CCN(CC(=O)O)CCN(CC(=O)O)CC4)CC3)c2)CSC[C@@H](C(=O)N[C@@H](CC(=O)O)C(N)=O)NC(=O)[C@H](Cc2ccccc2)NC(=O)[C@H](CCC(N)=O)NC(=O)[C@H]([C@@H](C)O)NC(=O)[C@@H]2CCCN2C(=O)[C@@H]2CCCN2C1=O [^177Lu-FAP-2287, metal not drawn] (Hexanoyl-CPPTQFCD-NH2; linker 1-7 via X1; N-terminus and C-terminus assumed)
- Tumor mass (MCA205-mFAP tumors): 746 mg
- TGI, Day 10 ([1]; day 10 pi, versus vehicle, n = 12 per group): 74%
- MTV, Day 10 ([1]; day 10 pi, 60 MBq 177Lu-FAP-2287 single iv dose and/or 10 mg/kg anti-PD-1 ip twice weekly, mean ± SEM, n = 12, vehicle 749.6 ± 91.2, SEM): 266.5 ± 53.2 mm^3
- RBW at nadir ([1]; relative body weight change at nadir (Day 2), mean ± SEM, n = 12, SEM): -1.1 ± 0.7%
- number of gene transcripts decreased [2, 6]: 15 genes
- number of genes with significantly increased RNA levels [2, 6]: 28 genes
- number of day 8 differentially expressed genes still differentially expressed at day 13 pi ([2]; day 13 pi): 16 genes
- CCL5 RNA increase in tumors ([2]; fold versus vehicle, day not given): 1.95 fold
- CD8^+ T cells by IHC (% of total cells) ([3]; day 8 pi, vehicle 4.9%): 9.0%
- CD8^+ T cells by IHC (% of total cells) ([3]; day 13, vehicle 4.4%): 8.5%
- CD8^+ (%, CD45^+) ([4]; Day 8 pi, SEM): 16.9 ± 3.2%
- CD86^+ on TAM (MFI) ([4]; Day 8 pi, SEM): 3928 ± 124 MFI
- CD127^+CD8^+ (%, CD8^+) ([4]; Day 8 pi, SEM): 50.0 ± 5.3%
- CD127 on CD127^+CD8^+ (MFI) ([4]; Day 8 pi, SEM): 1011 ± 118 MFI
- T cells (%, CD45^+) ([4]; Day 8 pi, SEM): 22.9 ± 3.6%
- TAM (%, CD45^+) ([4]; Day 8 pi, SEM): 23.0 ± 1.1%
- CD4+ (%, CD45+) ([4]; Day 8 pi): 6.0 ± 0.6%
- CD25+CD4+ (%, CD4+) ([4]; Day 8 pi): 60.4 ± 1.3%
- CD25+CD8+ (%, CD8+) ([4]; Day 8 pi): 7.7 ± 1.1%
- CD25 on CD4+ (MFI) ([4]; Day 8 pi): 931 ± 117 MFI
- CD25 on CD25+CD8+ (MFI) ([4]; Day 8 pi): 84 ± 6 MFI
- CD86+ TAMs (%, TAMs) ([4]; Day 8 pi): 89.5 ± 1.7%
- CD127+CD4+ (%, CD4+) ([4]; Day 8 pi): 41.0 ± 1.8%
- CD127 on CD4+ (MFI) ([4]; Day 8 pi): 777 ± 43 MFI
- CD45^+ (%, total) ([4]; Day 8 pi, SEM): 23.6 ± 3.1%
- CD8^+ (%, CD45^+) ([4]; Day 13 pi, SEM): 11.9 ± 1.5%
- CD86^+ on TAM (MFI) ([4]; Day 13 pi, SEM): 4063 ± 143 MFI
- CD127^+CD8^+ (%, CD8^+) ([4]; Day 13 pi, SEM): 44.5 ± 3.7%
- CD127 on CD127^+CD8^+ (MFI) ([4]; Day 13 pi, SEM): 874 ± 86 MFI
- T cells (%, CD45^+) ([4]; Day 13 pi, SEM): 19.0 ± 1.5%
- TAM (%, CD45^+) ([4]; Day 13 pi, SEM): 39.4 ± 1.4%
- CD4+ (%, CD45+) ([4]; Day 13 pi): 7.2 ± 0.4%
- CD25+CD4+ (%, CD4+) ([4]; Day 13 pi): 64.5 ± 1.2%
- CD25+CD8+ (%, CD8+) ([4]; Day 13 pi): 5.3 ± 0.6%
- CD25 on CD4+ (MFI) ([4]; Day 13 pi): 1182 ± 80 MFI
- CD25 on CD25+CD8+ (MFI) ([4]; Day 13 pi): 70 ± 4 MFI
- CD86+ TAMs (%, TAMs) ([4]; Day 13 pi): 92.0 ± 1.2%
- CD127+CD4+ (%, CD4+) ([4]; Day 13 pi): 38.9 ± 2.2%
- CD127 on CD4+ (MFI) ([4]; Day 13 pi): 736 ± 51 MFI
- CD45^+ (%, total) ([4]; Day 13 pi, SEM): 21.6 ± 1.4%
- CD86+ Mo-MDSCs (%, Mo-MDSCs) ([4]; mouse, in vivo): 84.9 ± 1.2% and 82.2 ± 2.9%
- PMN-MDSCs (%, CD45+) ([4]; mouse, in vivo): 9.6 ± 3.9% and 10.0 ± 1.3%
- CD86^+ on Mo-MDSC (MFI) ([4]; mouse, in vivo, SEM): 3267 ± 80 MFI and 2939 ± 114 MFI
- Mo-MDSC (%, CD45^+) ([4]; mouse, in vivo, SEM): 34.9 ± 0.9% and 21.3 ± 1.3%
- tissue uptake at 3 h ([5]; blood pool surrogate (left ventricle of the heart), iv, 30 MBq, 3 h p.i., ROI over left ventricle of the heart, read-out: Blood Pool Surrogate %ID/g): 0.5 %ID/g
- tissue uptake at 24 h ([5]; blood pool surrogate (left ventricle of the heart), iv, 30 MBq, 24 h p.i., ROI over left ventricle of the heart, read-out: Blood Pool Surrogate %ID/g): 0.1 %ID/g
- tissue uptake at 48 h ([5]; blood pool surrogate (left ventricle of the heart), iv, 30 MBq, 48 h p.i., ROI over left ventricle of the heart, read-out: Blood Pool Surrogate %ID/g): 0.1 %ID/g
- tissue uptake at 72 h ([5]; blood pool surrogate (left ventricle of the heart), iv, 30 MBq, 72 h p.i., ROI over left ventricle of the heart, read-out: Blood Pool Surrogate %ID/g): 0.1 %ID/g
- tissue uptake at 3 h ([5]; kidney, 3 h p.i., 30 MBq iv, read-out: Kidney %ID/g): 2 ± 0.1 %ID/g
- tissue uptake at 24 h ([5]; kidney, 24 h p.i., 30 MBq iv, read-out: Kidney %ID/g): 1.1 ± 0.1 %ID/g
- tissue uptake at 48 h ([5]; kidney, 48 h p.i., 30 MBq iv, read-out: Kidney %ID/g): 0.9 %ID/g
- tissue uptake at 72 h ([5]; kidney, 72 h p.i., 30 MBq iv, read-out: Kidney %ID/g): 0.6 ± 0.1 %ID/g
- tissue uptake at 3 h ([5]; liver, 3 h p.i., 30 MBq iv, read-out: Liver %ID/g): 0.5 %ID/g
- tissue uptake at 24 h ([5]; liver, 24 h p.i., 30 MBq iv, read-out: Liver %ID/g): 0.3 %ID/g
- tissue uptake at 48 h ([5]; liver, 48 h p.i., 30 MBq iv, read-out: Liver %ID/g): 0.3 %ID/g
- tissue uptake at 72 h ([5]; liver, 72 h p.i., 30 MBq iv, read-out: Liver %ID/g): 0.2 %ID/g
- tissue uptake at 3 h ([5]; tumor, 3 h p.i., 30 MBq (1 nmol) iv, SPECT/CT, read-out: Tumor %ID/g): 8.2 ± 0.5 %ID/g
- tissue uptake at 24 h ([5]; tumor, 24 h p.i., 30 MBq (1 nmol) iv, SPECT/CT, read-out: Tumor %ID/g): 2.9 ± 0.2 %ID/g
- tissue uptake at 48 h ([5]; tumor, 48 h p.i., 30 MBq (1 nmol) iv, SPECT/CT, read-out: Tumor %ID/g): 1.6 ± 0.1 %ID/g
- tissue uptake at 72 h ([5]; tumor, 72 h p.i., 30 MBq (1 nmol) iv, SPECT/CT, read-out: Tumor %ID/g): 0.9 ± 0.1 %ID/g
- tissue to tissue ratio at 3 h ([5]; tumor/kidney, iv, 30 MBq, 3 h p.i., read-out: T/K ratio (tumor-to-kidney)): 4.1
- tissue to tissue ratio at 24 h ([5]; tumor/kidney, iv, 30 MBq, 24 h p.i., read-out: T/K ratio (tumor-to-kidney)): 2.6
- tissue to tissue ratio at 48 h ([5]; tumor/kidney, iv, 30 MBq, 48 h p.i., read-out: T/K ratio (tumor-to-kidney)): 1.8
- tissue to tissue ratio at 72 h ([5]; tumor/kidney, iv, 30 MBq, 72 h p.i., read-out: T/K ratio (tumor-to-kidney)): 1.5
